Like-named read-outs stand apart in the source and are kept apart here.
Tests used:
[1] = tested on: xanthine oxidase derived from Enterobacter cloacae; experiment: km value of the comparative xanthine oxidase from Enterobacter cloacae; type: biochemical; conditions: Table 1, Comparative Example
Description: Determinations were made for conventional xanthine oxidase derived from milk and xanthine oxidase derived from Enterobacter cloacae.

[2] = tested on: Arthrobacter luteus ATCC 21606 thermostable xanthine oxidase (enzyme of the invention); experiment: km value of the thermostable xanthine oxidase of the invention; type: biochemical
Method: (§1) 50 mM tris-hydrochloric acid buffer (2.9 ml) and 0.1 ml of a 10 mM aqueous solution of xanthine are mixed, and this mixture is pre-heated at 37° C. After 0.01 ml of enzyme solution is added and gently mixed, the increase of absorbance at 293 nm per minute is determined using a spectrophotometer thermostated at 37° C. with distilled water as the control. The xanthine oxidase activity is expressed on the assumption that the amount of enzyme which produces 1 μmol of uric acid per minute under the conditions described above is taken as 1 unit (U).
as §1, with “After” for “50 mM tris-hydrochloric acid buffer (2.9 ml) and 0.1 ml of a 10 mM aqueous solution of xanthine are mixed, and this mixture is pre-heated at 37° C. After”, “550” for “293”, “quinone imine pigment” for “uric acid”

Compound	Km ([1]; read-out: km value hypoxanthine) [µM]	Km ([2]; read-out: km value for hypoxanthine, pH 7.5) [µM]	Km ([2]; read-out: km value hypoxanthine, Table 1, enzyme of Example 1) [µM]	Km ([1]; read-out: km value xanthine) [µM]	Km ([2]; Table 1, enzyme of Example 1, read-out: km value xanthine) [µM]	Km ([2]; pH 7.5, read-out: km value for xanthine) [µM]
O=c1[nH]cnc2nc[nH]c12 [hypoxanthine]	83	~52	52	–	–	–
O=c1[nH]c(=O)c2[nH]cnc2[nH]1 [xanthine]	–	–	–	73	54	~54

Reference: patent publication US5185257A, “Thermostable xanthine oxidase from Arthrobacter luteus” (Toyo Boseki Kabushiki Kaisha, priority 1990, dated 1993)
